Experimental data reported in ChEMBL document CHEMBL5576073, “Design and synthesis of novel fluorene derivatives as inhibitors of pyruvate dehydrogenase kinase” (Bioorg Med Chem Lett, 2024).
Values after ≈ are worked out from the molar mass of the structure shown. Active and inactive are the calls of the source. The rule behind the calls is not given here.

Tests used:
[1] = target: [Pyruvate dehydrogenase (acetyl-transferring)] kinase isozyme 2, mitochondrial (Homo sapiens, UniProt Q15119); experiment: Inhibition of human recombinant PDHK2 assessed as residual PDH activity in presence of ATP using sodium pyruvate/Coenzyme A/thiamine pyrophosphate as substrates incubated for 90 mins by UV-transparent microplate analysis
[2] = Aqueous solubility of compound in PBS at pH 7.2; format: physicochemical
[3] = Apparent permeability of compound in human Caco-2 cells; format: ADME, cell-based
[4] = Metabolic stability in human liver s9 fraction measured at 60 mins; format: ADME, subcellular; conditions: read-out: Stability
[5] = target: [Pyruvate dehydrogenase (acetyl-transferring)] kinase isozyme 4, mitochondrial (Homo sapiens, UniProt Q16654); experiment: Inhibition of PDHK4 (unknown origin)
[6] = Total body clearance in Sprague-Dawley rat at 1 mg/kg, iv measured for 25 hrs by LC-MS/MS analysis; format: ADME, organism-based; conditions: in vivo
[7] = Volume of distribution at steady state in Sprague-Dawley rat at 1 mg/kg, iv measured for 25 hrs by LC-MS/MS analysis; format: ADME, organism-based; conditions: in vivo, read-out: Vdss
[8] = MRT in Sprague-Dawley rat at 1 mg/kg, iv measured for 25 hrs by LC-MS/MS analysis; format: ADME, organism-based; conditions: in vivo
[9] = AUC in Sprague-Dawley rat at 1 mg/kg, iv measured for 25 hrs by LC-MS/MS analysis; format: ADME, organism-based; conditions: in vivo
[10] = Cmax in Sprague-Dawley rat at 10 mg/kg, po measured for 25 hrs by LC-MS/MS analysis; format: ADME, organism-based; conditions: in vivo
[11] = AUC in Sprague-Dawley rat at 10 mg/kg, po measured for 25 hrs by LC-MS/MS analysis; format: ADME, organism-based; conditions: in vivo
[12] = Oral bioavailability in Sprague-Dawley rat at 10 mg/kg measured for 25 hrs by LC-MS/MS analysis; format: ADME, organism-based; conditions: in vivo
[13] = species: Rattus norvegicus; experiment: Antidiabetic activity against Sprague-Dawley rat assessed as PDH activity in liver measured at 6 hrs; format: functional, organism-based; conditions: dose 0.1-10 mg/kg, route po
[14] = test system: Rattus norvegicus; experiment: Antidiabetic activity against Zucker fatty rats assessed as decrease in glucose level in plasma at 10 mg/kg administered for 28 days; format: functional, organism-based; conditions: time 28.0 day
[15] = Drug concentration in Sprague-Dawley rat at 10 mg/kg, po measured at 8 hrs by LC-MS/MS analysis; format: ADME, organism-based; conditions: in vivo, read-out: Drug uptake
[16] = Drug concentration in Sprague-Dawley rat at 10 mg/kg, po measured at 25 hrs by LC-MS/MS analysis; format: ADME, organism-based; conditions: in vivo, read-out: Drug uptake

Sequence of [Pyruvate dehydrogenase (acetyl-transferring)] kinase isozyme 4, mitochondrial (Q16654 whole entry): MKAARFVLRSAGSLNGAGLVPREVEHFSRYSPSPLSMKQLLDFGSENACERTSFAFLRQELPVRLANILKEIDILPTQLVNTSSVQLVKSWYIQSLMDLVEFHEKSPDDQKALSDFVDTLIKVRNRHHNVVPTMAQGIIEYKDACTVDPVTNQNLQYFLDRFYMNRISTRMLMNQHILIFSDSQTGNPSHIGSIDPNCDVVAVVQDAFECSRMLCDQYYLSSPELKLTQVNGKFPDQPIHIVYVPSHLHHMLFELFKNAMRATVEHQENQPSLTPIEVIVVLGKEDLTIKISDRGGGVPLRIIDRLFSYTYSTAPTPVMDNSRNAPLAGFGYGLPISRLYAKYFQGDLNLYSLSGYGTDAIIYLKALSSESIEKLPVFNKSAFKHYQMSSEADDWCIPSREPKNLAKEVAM

IC50 [1]	solubility [2]	Papp [3]	remaining at 1 h [4]	SMILES	also measured
20 nM	–	28.4 ×10⁻⁶ cm/s	91%	Cn1cc(-c2cc(OCCCC(=O)O)cc3c2-c2ccccc2C3(O)C(F)(F)F)cn1 (stereo not drawn)	–
20 nM	–	59.8 ×10⁻⁶ cm/s	97%	OCCn1cc(-c2cc(F)cc3c2-c2ccccc2C3(O)C(F)(F)F)cn1 (stereo not drawn)	–
–	92 µM (≈ 33.2 µg/mL)	68 ×10⁻⁶ cm/s	94%	OCCn1cc(-c2cccc3c2-c2ccccc2C3(O)C(F)(F)F)cn1 (racemic)	–
–	–	6.5 ×10⁻⁶ cm/s	94%	O=C(c1cc(-c2cnn(CCO)c2)c2c(c1)C(O)(C(F)(F)F)c1ccccc1-2)N1CCC1 (racemic)	–
–	94 µM (≈ 36.4 µg/mL)	51.2 ×10⁻⁶ cm/s	93%	CNC(=O)Cn1cc(-c2cccc3c2-c2ccccc2C3(O)C(F)(F)F)cn1 (racemic)	–
–	6.9 µM (≈ 2.28 µg/mL)	63.1 ×10⁻⁶ cm/s	62%	Cn1cc(-c2cccc3c2-c2ccccc2C3(O)C(F)(F)F)cn1 (racemic)	–
17 nM	–	54.3 ×10⁻⁶ cm/s	83%	Cc1cc(-c2cnn(CCO)c2)c2c(c1)C(O)(C(F)(F)F)c1ccccc1-2 (stereo not drawn)	IC50 [5]: > 1000 nM; clearance [6]: 11.7 mL/min/kg; Vd [7]: 2.6 L/kg; MRT [8]: 3.9 h; AUC at 25 h [9]: 4.1 µM·h; Cmax [10]: 4.4 µM; AUC at 25 h [11]: 57 µM·h; bioavailability [12]: 140%; Activity [13]: Dose-Dependent Effect; Activity [14]: Active; concentration at 8 h [15]: 3.1 µM; concentration at 25 h [16]: 0.2 µM

Second part, the compound before the results:

SMILES	IC50 [1]	solubility [2]	Papp [3]	remaining at 1 h [4]	also measured
OC1(C(F)(F)F)c2ccccc2-c2ccccc21	5900 nM	87 µM (≈ 21.8 µg/mL)	56.8 ×10⁻⁶ cm/s	–	–
OCCCCOc1ccc2c(c1)C(O)(C(F)(F)F)c1ccccc1-2 (racemic)	–	85 µM (≈ 28.8 µg/mL)	48.3 ×10⁻⁶ cm/s	–	–
OC1(C(F)(F)F)c2ccccc2-c2c(-c3cccnc3)cccc21 (racemic)	–	0.38 µM (≈ 0.124 µg/mL)	18 ×10⁻⁶ cm/s	80%	–
O=C(O)CCCOc1ccc2c(c1)C(O)(C(F)(F)F)c1ccccc1-2 (racemic)	–	≥ 95 µM	61.5 ×10⁻⁶ cm/s	92%	–
OC1(C(F)(F)F)c2ccccc2-c2c(-c3cnco3)cccc21 (racemic)	–	17 µM (≈ 5.39 µg/mL)	51.1 ×10⁻⁶ cm/s	61%	–
OC1(C(F)(F)F)c2ccccc2-c2ccc(-c3ccccc3)cc21 (racemic)	–	≤ 0.4 µM	9.8 ×10⁻⁶ cm/s	–	–
COC(=O)c1cccc2c1-c1ccccc1C2(O)C(F)(F)F (racemic)	900 nM	83 µM (≈ 25.6 µg/mL)	17.4 ×10⁻⁶ cm/s	–	–
CC(C)(C)Cn1cc(-c2cccc3c2-c2ccccc2C3(O)C(F)(F)F)cn1 (racemic)	–	≤ 0.4 µM	16.2 ×10⁻⁶ cm/s	84%	–
CC(C)C1(O)c2ccccc2-c2ncccc21 (racemic)	12000 nM	94 µM (≈ 21.2 µg/mL)	–	97%	–
O=C(c1ccc2c(c1)C(O)(C(F)(F)F)c1ccccc1-2)N1CCC1 (racemic)	170 nM	93 µM (≈ 31 µg/mL)	47.5 ×10⁻⁶ cm/s	49%	–
O=C1CCCN1c1ccc2c(c1)C(O)(C(F)(F)F)c1ccccc1-2 (racemic)	–	83 µM (≈ 27.7 µg/mL)	39.5 ×10⁻⁶ cm/s	29%	–
Nc1nc(SCC(=O)c2ccccc2)nc2sc3c(c12)CCN(Cc1ccccc1)C3	1900 nM	≤ 0.3 µM	–	6%	–
OC1(C(F)(F)F)c2ccccc2-c2c(-c3cncnc3)cccc21 (racemic)	–	4.6 µM (≈ 1.51 µg/mL)	56.2 ×10⁻⁶ cm/s	96%	–
COC(=O)c1ccc2c(c1)C(O)(C(F)(F)F)c1ccccc1-2 (racemic)	600 nM	45 µM (≈ 13.9 µg/mL)	34.5 ×10⁻⁶ cm/s	–	–
